In PubChem BioAssay (NCI):
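Step 1: Grow cells in 96-well plates. Step 2: Expose to compound for 48 hours at 5 concentrations. Step 3: Interpolate endpoints linearly; if unreached, use highest concentration. TGI marks complete inhibition of growth.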

Columns and labels:
Experiment in all cases: inhibition of tumour cell growth, NCI panel, 48 h
[1] = test system: NCI-H522 lung
[2] = test system: RXF 393 renal
[3] = test system: SNB-75 CNS
[4] = test system: OVCAR-5 ovarian
[5] = test system: KM12 colon
[6] = test system: SK-OV-3 ovarian
[7] = test system: M14 melanoma
[8] = test system: ACHN renal
[9] = test system: SF-539 CNS
[10] = test system: IGROV1 ovarian
[11] = test system: SF-268 CNS
[12] = test system: SK-MEL-5 melanoma
[13] = test system: SR leukemia
[14] = test system: CAKI-1 renal
[15] = test system: CCRF-CEM leukemia
[16] = test system: PC-3 prostate
[17] = test system: MCF7 breast
[18] = test system: RPMI-8226 leukemia
[19] = test system: MDA-MB-231 breast
[20] = test system: OVCAR-8 ovarian
[21] = test system: OVCAR-4 ovarian
[22] = test system: T-47D breast
[23] = test system: NCI-H23 lung
[24] = test system: SNB-19 CNS
[25] = test system: TK-10 renal
[26] = test system: MDA-N
[27] = test system: 786-0 renal
[28] = test system: HCT-116 colon
[29] = test system: LOX IMVI melanoma
[30] = test system: MDA-MB-435
[31] = test system: COLO 205 colon
[32] = test system: UO-31 renal
[33] = test system: UACC-257 melanoma
[34] = test system: EKVX NSCLC
[35] = test system: SK-MEL-2 melanoma
[36] = test system: OVCAR-3 ovarian
[37] = test system: U251 CNS
[38] = test system: SN12C renal
[39] = test system: HL-60(TB) leukemia
[40] = test system: NCI-H460 lung
[41] = test system: A498 renal
[42] = test system: BT-549 breast
[43] = test system: DU-145 prostate
[44] = test system: A549 NSCLC
[45] = test system: SF-295 CNS
[46] = test system: HOP-92 NSCLC
[47] = test system: NCI/ADR-RES ovarian
[48] = test system: HCT-15 colon
[49] = test system: MALME-3M melanoma
[50] = test system: HOP-62 NSCLC
[51] = test system: HS 578T breast
[52] = test system: K-562 leukemia
[53] = test system: SW-620 colon
[54] = test system: SK-MEL-28 melanoma
[55] = test system: HT29 colon
[56] = test system: UACC-62 melanoma
[57] = test system: MOLT-4 leukemia
[58] = test system: NCI-H226 lung

## COc1ccc(C(=O)/C=C/c2ccc(Oc3cc(C(=O)/C=C/c4ccc(O)cc4)c(O)cc3OC)cc2)c(O)c1
[1]
  TGI: 10.5 µM
[2]
  TGI: 6.96 µM
[3]
  TGI: 18.2 µM
[4]
  TGI: 26 µM
[5]
  TGI: 7.83 µM
[6]
  TGI: 96.4 µM
[7]
  TGI: 61.2 µM
[8]
  TGI: 6.85 µM
[9]
  TGI: 5.26 µM
[10]
  TGI: 6.13 µM
[11]
  TGI: > 100 µM
[12]
  TGI: 18.7 µM
[13]
  TGI: 5.73 µM
[14]
  TGI: 68.4 µM
[15]
  TGI: > 100 µM
[16]
  TGI: > 100 µM
[17]
  TGI: > 100 µM
[18]
  TGI: 4.7 µM
[19]
  TGI: 9.8 µM
[20]
  TGI: 9.83 µM
[21]
  TGI: 18 µM
[22]
  TGI: 66.9 µM
[23]
  TGI: 18.1 µM
[24]
  TGI: > 100 µM
[25]
  TGI: 58 µM
[26]
  TGI: > 100 µM
[27]
  TGI: 7.9 µM
[28]
  TGI: 3.96 µM
[29]
  TGI: 5.05 µM
[30]
  TGI: > 100 µM
[31]
  TGI: 15.4 µM
[32]
  TGI: 11.3 µM
[33]
  TGI: > 100 µM
[34]
  TGI: 23.5 µM
[35]
  TGI: 46 µM
[36]
  TGI: 32.2 µM
[37]
  TGI: > 100 µM
[38]
  TGI: > 100 µM
[39]
  TGI: > 100 µM
[40]
  TGI: > 100 µM
[41]
  TGI: 6.26 µM
[42]
  TGI: > 100 µM
[43]
  TGI: > 100 µM
[44]
  TGI: > 100 µM
[45]
  TGI: 40.2 µM
[46]
  TGI: 38.4 µM
[47]
  TGI: 11 µM
[48]
  TGI: 6.62 µM
[49]
  TGI: 59.8 µM
[50]
  TGI: 49.2 µM
[51]
  TGI: > 100 µM
[52]
  TGI: > 100 µM
[53]
  TGI: > 100 µM
[54]
  TGI: 8.15 µM
[55]
  TGI: 5.13 µM
[56]
  TGI: 11.2 µM

## COc1cc(-c2nc3ccc(N4CCN(C)CC4)cc3[nH]2)c(OC)c2[nH]c(CO)nc12
[1]
  TGI: > 100 µM
[2]
  TGI: > 100 µM
[3]
  TGI: > 100 µM
[4]
  TGI: > 100 µM
[5]
  TGI: > 100 µM
[6]
  TGI: > 100 µM
[7]
  TGI: > 100 µM
[8]
  TGI: > 100 µM
[9]
  TGI: > 100 µM
[10]
  TGI: > 100 µM
[11]
  TGI: > 100 µM
[12]
  TGI: > 100 µM
[57]
  TGI: > 100 µM
[13]
  TGI: > 100 µM
[14]
  TGI: > 100 µM
[15]
  TGI: 44.5 µM
[16]
  TGI: > 100 µM
[17]
  TGI: > 100 µM
[18]
  TGI: > 100 µM
[19]
  TGI: > 100 µM
[20]
  TGI: > 100 µM
[21]
  TGI: > 100 µM
[22]
  TGI: > 100 µM
[23]
  TGI: > 100 µM
[24]
  TGI: > 100 µM
[25]
  TGI: > 100 µM
[26]
  TGI: > 100 µM
[27]
  TGI: > 100 µM
[28]
  TGI: > 100 µM
[29]
  TGI: > 100 µM
[30]
  TGI: > 100 µM
[31]
  TGI: > 100 µM
[32]
  TGI: > 100 µM
[33]
  TGI: > 100 µM
[34]
  TGI: > 100 µM
[35]
  TGI: > 100 µM
[36]
  TGI: > 100 µM
[37]
  TGI: > 100 µM
[38]
  TGI: > 100 µM
[39]
  TGI: 37.2 µM
[40]
  TGI: > 100 µM
[41]
  TGI: > 100 µM
[42]
  TGI: > 100 µM
[58]
  TGI: > 100 µM
[43]
  TGI: > 100 µM
[44]
  TGI: > 100 µM
[45]
  TGI: > 100 µM
[46]
  TGI: > 100 µM
[47]
  TGI: > 100 µM
[48]
  TGI: > 100 µM
[49]
  TGI: > 100 µM
[50]
  TGI: > 100 µM
[51]
  TGI: > 100 µM
[52]
  TGI: > 100 µM
[53]
  TGI: > 100 µM
[54]
  TGI: > 100 µM
[55]
  TGI: > 100 µM
[56]
  TGI: > 100 µM
